{"source": "ChEMBL document CHEMBL1201862", "about": "“PubChem BioAssay data set” (2004)", "key": {"[1]": {"target": "T1, Ubiquitin-conjugating enzyme E2 N (Homo sapiens, UniProt P61088)", "T1 sequence (P61088 whole entry)": "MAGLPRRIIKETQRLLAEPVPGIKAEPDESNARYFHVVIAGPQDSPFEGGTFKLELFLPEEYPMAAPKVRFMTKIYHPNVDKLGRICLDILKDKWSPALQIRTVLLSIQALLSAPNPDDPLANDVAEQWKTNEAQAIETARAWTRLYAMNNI", "type": "functional"}, "Leucine aminopeptidase": {"target": "T2, Leucine aminopeptidase (Plasmodium falciparum 3D7, UniProt Q8IL11)", "T2 sequence (Q8IL11 whole entry)": "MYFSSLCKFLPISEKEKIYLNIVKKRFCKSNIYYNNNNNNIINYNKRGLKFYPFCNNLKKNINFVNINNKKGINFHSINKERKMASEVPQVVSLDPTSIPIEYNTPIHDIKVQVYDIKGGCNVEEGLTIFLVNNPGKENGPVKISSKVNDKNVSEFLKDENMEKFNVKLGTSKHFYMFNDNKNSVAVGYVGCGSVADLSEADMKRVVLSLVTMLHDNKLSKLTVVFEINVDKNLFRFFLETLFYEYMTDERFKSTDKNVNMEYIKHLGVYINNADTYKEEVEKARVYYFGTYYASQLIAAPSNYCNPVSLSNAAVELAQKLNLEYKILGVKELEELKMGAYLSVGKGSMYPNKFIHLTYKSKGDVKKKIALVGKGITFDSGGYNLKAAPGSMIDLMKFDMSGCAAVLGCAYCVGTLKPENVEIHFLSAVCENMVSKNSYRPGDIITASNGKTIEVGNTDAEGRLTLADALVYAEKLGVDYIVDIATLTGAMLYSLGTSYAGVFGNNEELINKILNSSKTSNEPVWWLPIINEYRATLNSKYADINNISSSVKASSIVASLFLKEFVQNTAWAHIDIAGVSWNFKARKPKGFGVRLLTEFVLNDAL", "assay": "P. falciparum M17LAP inhibitors, primary screen, biochemical, fluorogenic H-Leu-NHMec substrate, 1536-well (AID 1619)", "type": "functional"}, "[2]": {"target": "T3, Replicative DNA helicase DnaB (Mycobacterium tuberculosis, UniProt P9WMR3)", "T3 sequence (P9WMR3 whole entry)": "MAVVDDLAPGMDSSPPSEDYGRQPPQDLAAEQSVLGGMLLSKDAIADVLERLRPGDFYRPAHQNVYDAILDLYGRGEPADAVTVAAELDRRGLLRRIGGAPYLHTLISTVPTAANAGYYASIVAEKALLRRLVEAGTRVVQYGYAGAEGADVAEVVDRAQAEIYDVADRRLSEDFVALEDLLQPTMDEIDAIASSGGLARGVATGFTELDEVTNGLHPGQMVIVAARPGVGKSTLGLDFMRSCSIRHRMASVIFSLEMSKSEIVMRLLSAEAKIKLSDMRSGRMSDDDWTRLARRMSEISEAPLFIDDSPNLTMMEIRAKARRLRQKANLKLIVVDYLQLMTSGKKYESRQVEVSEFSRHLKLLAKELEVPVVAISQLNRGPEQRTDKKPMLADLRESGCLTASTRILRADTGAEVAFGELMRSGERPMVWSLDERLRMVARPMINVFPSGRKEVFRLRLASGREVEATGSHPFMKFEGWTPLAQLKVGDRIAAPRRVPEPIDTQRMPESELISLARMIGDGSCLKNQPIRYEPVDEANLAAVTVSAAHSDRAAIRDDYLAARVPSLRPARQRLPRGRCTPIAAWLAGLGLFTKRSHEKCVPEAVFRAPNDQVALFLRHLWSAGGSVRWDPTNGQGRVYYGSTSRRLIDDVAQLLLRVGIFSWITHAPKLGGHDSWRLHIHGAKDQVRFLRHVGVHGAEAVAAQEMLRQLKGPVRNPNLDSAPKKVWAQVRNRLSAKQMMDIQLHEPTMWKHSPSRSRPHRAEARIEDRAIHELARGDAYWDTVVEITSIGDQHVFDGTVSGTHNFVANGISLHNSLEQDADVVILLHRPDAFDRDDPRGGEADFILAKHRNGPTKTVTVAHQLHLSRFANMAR", "assay": "DnaB intein splicing inhibitors, dose response, biochemical, cell-free fluorescence (AID 449749)", "type": "functional"}, "Protein RecA": {"target": "T4, Protein RecA (Mycobacterium tuberculosis, UniProt P9WHJ3)", "T4 sequence (P9WHJ3 whole entry)": "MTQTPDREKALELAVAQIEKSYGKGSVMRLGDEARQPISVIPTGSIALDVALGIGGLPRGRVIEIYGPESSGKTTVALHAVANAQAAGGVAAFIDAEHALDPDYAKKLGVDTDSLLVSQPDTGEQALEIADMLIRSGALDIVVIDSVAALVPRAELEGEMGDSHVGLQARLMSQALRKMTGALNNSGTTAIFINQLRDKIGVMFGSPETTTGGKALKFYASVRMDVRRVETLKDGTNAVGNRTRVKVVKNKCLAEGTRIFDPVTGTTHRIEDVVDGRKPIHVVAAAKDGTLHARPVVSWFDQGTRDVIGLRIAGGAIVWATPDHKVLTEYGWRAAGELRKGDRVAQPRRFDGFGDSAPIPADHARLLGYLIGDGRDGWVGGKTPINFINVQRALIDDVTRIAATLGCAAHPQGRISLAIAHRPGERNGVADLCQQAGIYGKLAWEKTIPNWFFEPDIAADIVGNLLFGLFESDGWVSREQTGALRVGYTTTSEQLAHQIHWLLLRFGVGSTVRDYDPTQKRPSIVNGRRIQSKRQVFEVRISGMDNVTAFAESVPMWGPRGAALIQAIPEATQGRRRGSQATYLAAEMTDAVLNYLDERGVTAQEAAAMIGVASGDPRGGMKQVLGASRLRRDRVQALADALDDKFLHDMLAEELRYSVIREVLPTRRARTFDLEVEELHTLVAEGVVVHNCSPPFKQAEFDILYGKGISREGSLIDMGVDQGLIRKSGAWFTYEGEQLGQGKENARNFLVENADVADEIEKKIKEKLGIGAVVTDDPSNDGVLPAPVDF", "assay": "Fluorescence Cell-Free Homogeneous Dose Retest to Identify Inhibitors of RecA-Intein Splicing Activity. [Related pubchem assays (depositor defined):AID2097, AID2223, AID489010, AID492950]", "type": "functional"}, "[3]": {"assay": "viability of uninfected HEp-2 cells – cell-based, HTS, cytotoxicity control for RSV inhibitor project, dose response (AID 2410)", "type": "functional", "details": "human respiratory syncytial virus"}, "[4]": {"assay": "viability of PTEN-deleted HCT116 cells – cell-based, HCT116 PTEN knockout, dose response (AID 1047);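 further: HCT116 colon tumor cells with PTEN knocked out; cells exposed to compound for 60 hours before readout; potency for loss of cell viability measured by luminescence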", "type": "functional"}, "[5]": {"assay": "viability of HCT116 lacking mutant beta-catenin – cell-based, human colon tumor, dose response (AID 1045);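 further: HCT116 colon tumor cells with beta catenin knocked out; cells exposed to compound for 60 hours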", "type": "functional"}, "Cytochrome P450 2C9": {"target": "Cytochrome P450 2C9 (Homo sapiens, UniProt P11712)", "sequence (P11712 whole entry)": "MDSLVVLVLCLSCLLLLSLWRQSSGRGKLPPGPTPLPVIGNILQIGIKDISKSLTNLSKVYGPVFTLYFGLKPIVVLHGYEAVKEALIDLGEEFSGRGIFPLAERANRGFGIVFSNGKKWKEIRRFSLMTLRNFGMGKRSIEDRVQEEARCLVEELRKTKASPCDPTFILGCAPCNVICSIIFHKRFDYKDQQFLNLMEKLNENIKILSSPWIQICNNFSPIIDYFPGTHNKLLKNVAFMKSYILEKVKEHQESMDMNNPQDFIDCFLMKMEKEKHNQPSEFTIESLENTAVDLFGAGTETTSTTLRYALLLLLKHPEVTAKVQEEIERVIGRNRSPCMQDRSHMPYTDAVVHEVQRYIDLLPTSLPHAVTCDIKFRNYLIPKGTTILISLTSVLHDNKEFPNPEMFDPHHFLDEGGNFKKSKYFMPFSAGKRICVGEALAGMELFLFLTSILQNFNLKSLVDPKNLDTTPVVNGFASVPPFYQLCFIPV"}}, "note": "Activity calls are given as the source filed them."}
{"smiles": "CCOc1ccc(C(C(=O)NCC2CCCO2)N(C(=O)c2snc(C(N)=O)c2N)c2ccc3c(c2)OCCO3)cc1", "note": "(stereo unspecified)", "values": [{"measurement": "IC50", "setting": "[1]", "value": "> 20 µM (inactive)"}]}
{"smiles": "CC1=NN(CCC#N)C(=O)/C1=C/c1ccc(N(C)C)cc1", "values": [{"measurement": "IC50", "setting": "Leucine aminopeptidase", "value": "120 µM (active)"}, {"measurement": "AC50", "setting": "[2]", "value": "2.79 µM (inconclusive)"}, {"measurement": "EC50", "setting": "Protein RecA", "value": "3.17 µM (active)"}]}
{"smiles": "COc1ccc(/C=C/C(=O)Nc2ccc3c(c2)CCC3)cc1OC", "values": [{"measurement": "CC50", "setting": "[3]", "value": "> 50 µM (active)"}]}
{"smiles": "CCOC(=O)c1ccc(-c2ccc(/C=N/NC(=O)CN(c3ccccc3Br)S(C)(=O)=O)o2)cc1", "values": [{"measurement": "CC50", "setting": "[3]", "value": "> 50 µM (active)"}, {"measurement": "EC50", "setting": "[4]", "value": "17.8 µM (active)"}, {"measurement": "EC50", "setting": "[5]", "value": "22.5 µM (active)"}]}
{"smiles": "Cn1c(O)cc(=O)nc1SCC(=O)Nc1ccccc1", "values": [{"measurement": "IC50", "setting": "Leucine aminopeptidase", "value": "17.1 µM (active)"}, {"measurement": "AC50", "setting": "Cytochrome P450 2C9", "value": "2.82 µM (inconclusive)"}]}
{"smiles": "COc1ccc(-c2nc(N3CCOCC3)nc3n[nH]c(N)c23)cc1", "values": [{"measurement": "IC50", "setting": "Leucine aminopeptidase", "value": "8.11 µM (active)"}]}
